Assay results from ChEMBL document CHEMBL1149006, “Isolation and characterization of a new triterpene from Iris missouriensis” (1986).
≈ marks a conversion by molar mass, not a printed value.

Test system: P388
Assay: Cytotoxicity against mouse P388 cells
Assay type: functional
Conditions: read-out: ED50 (the source's name)

| SMILES | EC50 [µg/mL] |
| --- | --- |
| CC[C@H](/C=C/[C@@H](C)[C@H]1CC[C@H]2[C@@H]3[C@@H](O)C=C4C[C@@H](O)CC[C@]4(C)[C@H]3CC[C@]12C)C(C)C | 0.1 (≈ 0.233 µM) |
| CC[C@H](CC[C@@H](C)[C@H]1CC[C@H]2[C@@H]3[C@@H](O)C=C4C[C@@H](O)CC[C@]4(C)[C@H]3CC[C@]12C)C(C)C | 0.2 (≈ 0.464 µM) |
